Read-outs that look alike come from different tables or passages of the source.
Columns and labels:
Aedes aegypti [1] = assay: Double (dual) chamber assay, spatial repellence; type: in vivo
Description: FIG. 1: Percentage of mosquitoes Aedes aegypti escaping over time the chamber treated with a stimulus. The four stimuli were the solvent propan-1,2-diol (grey triangles and dotted line), N,N-diethyl-meta-toluamide (medium grey diamonds), 2,6-dimethoxy-4-methylphenol (light gray squares) and 1,2,3-trimethoxy-5-propylbenzene (black circles). Each stimulus was injected during 40 min thanks to a forced evaporation system in the treated chamber containing the mosquitoes, causing their movement toward the untreated refuge chamber. Each point represents the mean number of mosquitoes in the untreated chamber (n=57, 6, 4 and 4 respectively)±SD at 10 min intervals.
The goal of this assay was to reproduce at a smaller scale the validation test for spatial repellent as described in WHO (2013; ISBN 978 92 4 150502 4).
The assay consists of a transparent cage (1200×755×700 mm; ˜0.63 m^3) covered by white paper. This cage is divided in two chambers of equal dimensions by a plasticized paper wall with square opening (200×200 mm) situated in the middle of the wall. At the beginning of the experiment, about 40 two-weeks old female Aedes aegypti mosquitoes are placed in the right chambers. Once the mosquitoes are settled inside this chamber (>5 min), the door between the chambers is opened. Then the stimulus is introduced into the mosquito chamber through a L-shape Teflon tube (40 mm) placed in the middle of the right Plexiglas wall. The stimulus is dispensed thanks to a Forced Evaporation System (Chappuis et al, 2015, DOI: 10.1021/acs.est.5b00692) at a rate of 0.1 mL/min in a nitrogen flow of 1 L/min, blended in a humid air flow of 9L/min before being carried to the L-shape Teflon tube. An air sucking system (˜150 L/min) is placed above the wall opening, between the two chambers (100 mm Ø), preventing the untreated chamber from being contaminated by the stimulus and limiting the stimulus accumulation in the treated chamber. […] Ten, 20, 30 and 40 minutes after the start of the stimulus injection, the number of mosquitoes that have moved to the untreated chamber is manually counted.

Aedes aegypti [2] = assay: Warm Body assay, mosquito landings on treated warm body; type: in vivo
How it was run: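 Compounds in ethanol (100 μL, various concentrations) were applied to a sandblasted glass dish covering the warm body (28.3 cm^2), with ethanol as control. Landings were counted automatically from 30 non-blood-fed, sugar-fed Aedes aegypti Rockefeller females aged 5–10 days, under 150 lux.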

Anopheles gambiae [3] = assay: as above; type: in vivo
Description: Anopheles gambiae is also a model organism as it is anthropophilic and transmits malaria.
The controlling effect according to the present invention was assessed using an adapted Warm Body assay as defined in Kröber T, Kessler S, Frei J, Bourquin M, Guerin P M. 2010. J Am Mosq Control Assoc. 26: 381-386. In this in-vitro assay the number of mosquito landing on a warm body, simulating an attractive host treated with the tested stimuli, was measured in order to assess the repellence effect.
On the sandblasted glass Petri dish covering the warm body (28.3 cm^2), 100 μL of the compounds diluted at different concentrations in ethanol was applied. The number of mosquito landing on the warm body was counted for each stimulus and pure ethanol (solvent) as control.

Anopheles gambiae [4] = assay: Arm-in-cage test on human volunteers over time; type: in vivo
Aedes aegypti [5] = assay: Free flying room assay, spatial repellence with human volunteer; type: in vivo
Description: The goal of this large-scale test is to assess the propensity of stimulus released in the air to protect a human volunteer by limiting the mosquito presence in a protected space and the number of landing/biting. The protocol used to carry the test is following the guidelines indicated in WHO (2013; ISBN 978 92 4 150502 4).
A group of 50 Aedes aegypti female mosquitoes were introduced in one chamber of 25 m^3 one hour before the test started. The product was applied in the other chamber of 25 m^3 (“treated chamber”) and let evaporate for 30 minutes. The test started when the window separating the two chambers was opened in a tilt-on manner for another 30 minutes. Twenty minutes after the window was opened, a volunteer entered in the “treated chamber” and sat down for 10 minutes, exposing the forearm for the last 3 minutes to determine the probing activity (Protective Efficacy). Then, the connecting window was closed and the number of mosquitoes in each of the chambers was counted (Spatial Repellency). The negative controls were carried out following the same procedure but without the application of the stimulus. Three replicates of each treatment and of the negative control were conducted with three different volunteers.

Ixodes ricinus = assay: Warm Plate assay, tick repellence; settings: Ixodes ricinus, read-out: Percentage of repellence of ticks Ixodes ricinus on the warm plate

CCN(CC)C(=O)c1cccc(C)c1 [DEET, N,N-diethyl-meta-toluamide, reference compound]
movement of mosquitoes towards the refuge chamber (Aedes aegypti [1]; after 40 min of injection in the treated chamber): 16.2%±7.3%

Cc1ccc2c(c1)OCC(=O)CO2 [compound 1228, 7-methyl-1,5-benzodioxepin-3-one]
pest or weed control at 16 µg/mL (Aedes aegypti [2]; Aedes aegypti, 0.016 mg/mL (Table 3), read-out: Percentage of repellence of mosquitoes Aedes aegypti landing on the warm body): 54% | pest or weed control at 400 µg/mL (Aedes aegypti [2]; Aedes aegypti, 0.4 mg/mL (Table 3), read-out: Percentage of repellence of mosquitoes Aedes aegypti landing on the warm body): 74% | pest or weed control at 10000 µg/mL (Aedes aegypti [2]; Aedes aegypti, 10 mg/mL (Table 3), read-out: Percentage of repellence of mosquitoes Aedes aegypti landing on the warm body): 100% | pest or weed control at 1 % (Aedes aegypti [2]; Aedes aegypti, highest tested concentration, 1% (Table 3), read-out: repellence): > 90% | pest or weed control at 0.0016 % (Aedes aegypti [2]; Aedes aegypti, lowest concentration of 0.0016% (Table 3), read-out: reduce the number of mosquito landings): > 50% | mosquito landing within the two minutes of experiments (Aedes aegypti [2]; highest tested concentration, 1% (Table 3)): protect the attractive stimulus for any mosquito landing | pest or weed control at 3.2 µg/mL (Anopheles gambiae [3]; Anopheles gambiae, 0.0032 mg/mL (Table 5), read-out: Percentage of repellence of mosquitoes Anopheles gambiae landing on the warm body): 0% | pest or weed control at 80 µg/mL (Anopheles gambiae [3]; Anopheles gambiae, 0.08 mg/mL (Table 5), read-out: Percentage of repellence of mosquitoes Anopheles gambiae landing on the warm body): 0% | pest or weed control at 178 µg/mL (Anopheles gambiae [3]; Anopheles gambiae, 0.178 mg/mL (Table 4), read-out: Percentage of repellence of mosquitoes Anopheles gambiae landing on the warm body): 48% | pest or weed control at 178 µg/mL (Anopheles gambiae [3]; Anopheles gambiae, 0.178 mg/mL (Table 5), read-out: Percentage of repellence of mosquitoes Anopheles gambiae landing on the warm body): 48% | pest or weed control at 267 µg/mL (Anopheles gambiae [3]; Anopheles gambiae, 0.267 mg/mL (Table 4), read-out: Percentage of repellence of mosquitoes Anopheles gambiae landing on the warm body): 85% | pest or weed control at 267 µg/mL (Anopheles gambiae [3]; Anopheles gambiae, 0.267 mg/mL (Table 5), read-out: Percentage of repellence of mosquitoes Anopheles gambiae landing on the warm body): 71% | pest or weed control at 400 µg/mL (Anopheles gambiae [3]; Anopheles gambiae, 0.4 mg/mL (Table 4), read-out: Percentage of repellence of mosquitoes Anopheles gambiae landing on the warm body): 65% | pest or weed control at 400 µg/mL (Anopheles gambiae [3]; Anopheles gambiae, 0.4 mg/mL (Table 5), read-out: Percentage of repellence of mosquitoes Anopheles gambiae landing on the warm body): 66% | pest or weed control at 598 µg/mL (Anopheles gambiae [3]; Anopheles gambiae, 0.598 mg/mL (Table 5), read-out: Percentage of repellence of mosquitoes Anopheles gambiae landing on the warm body): 69% | pest or weed control at 2000 µg/mL (Anopheles gambiae [3]; Anopheles gambiae, 2 mg/mL (Table 5), read-out: Percentage of repellence of mosquitoes Anopheles gambiae landing on the warm body): 92% | pest or weed control at 4470 µg/mL (Anopheles gambiae [3]; Anopheles gambiae, 4.47 mg/mL (Table 4), read-out: Percentage of repellence of mosquitoes Anopheles gambiae landing on the warm body): 92% | pest or weed control at 4470 µg/mL (Anopheles gambiae [3]; Anopheles gambiae, 4.47 mg/mL (Table 5), read-out: Percentage of repellence of mosquitoes Anopheles gambiae landing on the warm body): 92% | pest or weed control at 10000 µg/mL (Anopheles gambiae [3]; Anopheles gambiae, 10 mg/mL (Table 4), read-out: Percentage of repellence of mosquitoes Anopheles gambiae landing on the warm body): 100% | pest or weed control at 10000 µg/mL (Anopheles gambiae [3]; Anopheles gambiae, 10 mg/mL (Table 5), read-out: Percentage of repellence of mosquitoes Anopheles gambiae landing on the warm body): 100% | repellence (no mosquito landing on the attractive stimulus) (Anopheles gambiae [3]; with at least one of the two concentrations 0.447% & 1% (Table 4)): 100% | Complete Protection Time (no confirmed landing) (Anopheles gambiae [4]; arm treated with 20%): 1.33 h | Number of mosquitoes landing on the treated arm (test) (Anopheles gambiae [4]; arm treated with 20%, 30 min post-application): 0 | Number of mosquitoes landing on the treated arm (test) (Anopheles gambiae [4]; arm treated with 20%, 1 h post-application): 0 | Number of mosquitoes landing on the treated arm (test) (Anopheles gambiae [4]; arm treated with 20%, 2 h post-application): 3.0 ± 1.8 | Number of mosquitoes landing on the treated arm (test) (Anopheles gambiae [4]; arm treated with 20%, 3 h post-application): 7.5 ± 1.1 | protection (Anopheles gambiae [4]; at 3 h, on two volunteers): 79.64%

COc1cc(C)cc(OC)c1O [compound 1537, 2,6-dimethoxy-4-methylphenol]
pest or weed control at 3.2 µg/mL (Aedes aegypti [2]; Aedes aegypti, 0.0032 mg/mL (Table 2), read-out: Percentage of repellence of mosquitoes Aedes aegypti landing on the warm body): 0% | pest or weed control at 16 µg/mL (Aedes aegypti [2]; Aedes aegypti, 0.016 mg/mL (Table 2), read-out: Percentage of repellence of mosquitoes Aedes aegypti landing on the warm body): 35% | pest or weed control at 35.7 µg/mL (Aedes aegypti [2]; Aedes aegypti, 0.0357 mg/mL (Table 2), read-out: Percentage of repellence of mosquitoes Aedes aegypti landing on the warm body): 36% | pest or weed control at 80 µg/mL (Aedes aegypti [2]; Aedes aegypti, 0.08 mg/mL (Table 2), read-out: Percentage of repellence of mosquitoes Aedes aegypti landing on the warm body): 40% | pest or weed control at 178 µg/mL (Aedes aegypti [2]; Aedes aegypti, 0.178 mg/mL (Table 2), read-out: Percentage of repellence of mosquitoes Aedes aegypti landing on the warm body): 62% | pest or weed control at 400 µg/mL (Aedes aegypti [2]; Aedes aegypti, 0.4 mg/mL (Table 2), read-out: Percentage of repellence of mosquitoes Aedes aegypti landing on the warm body): 89% | pest or weed control at 890 µg/mL (Aedes aegypti [2]; Aedes aegypti, 0.89 mg/mL (Table 2), read-out: Percentage of repellence of mosquitoes Aedes aegypti landing on the warm body): 84% | pest or weed control at 2000 µg/mL (Aedes aegypti [2]; Aedes aegypti, 2 mg/mL (Table 2), read-out: Percentage of repellence of mosquitoes Aedes aegypti landing on the warm body): 100% | pest or weed control at 10000 µg/mL (Aedes aegypti [2]; Aedes aegypti, 10 mg/mL (Table 2), read-out: Percentage of repellence of mosquitoes Aedes aegypti landing on the warm body): 100% | plateau of mosquitoes moved to the untreated chamber (Aedes aegypti [1]; after 30 min of injection): ~42% | mosquitoes landed on the volunteer (Aedes aegypti [5]; in 3 minutes, negative control 60.7±2.5 landings): 14.7±2.5 | Spatial Repellence (Aedes aegypti [5]; large scale assay, 25 m3 chambers, compound released in the air): 64.3 ± 3.4% | Protective efficacy (Aedes aegypti [5]; large scale assay, probing on volunteer forearm, 3 minutes): 75.8 ± 3.9% | mosquito entered the treated chamber (Aedes aegypti [5]; negative control 82.5±3.7%): 29.5±2.8% | pest or weed control at 400 µg/mL (Ixodes ricinus): 16.7% | pest or weed control at 2000 µg/mL (Ixodes ricinus): 58.3% | pest or weed control at 10000 µg/mL (Ixodes ricinus): 72.7%
